Assay results as given in patent US20240050409A1, “Methods and Compositions for Treating Psychotic Disorders” (SOUND PHARMACEUTICALS INCORPORATED, priority 2014, published 2024).
“Also recorded” adds a separate entry of the source.

Assays:
NVHL rats = assay: Prepulse inhibition of the acoustic startle response (PPI) in NVHL rats; assay type: in vivo, Sprague-Dawley rats; details: adult NVHL rats
Procedure: To assess whether juvenile oxidative stress leads to behavioral deficits, a behavioral paradigm was used for testing in both animal models and schizophrenia patients. Prepulse inhibition of the acoustic startle response (PPI) is a measure of sensorimotor gating that is reduced in patients (Geyer and Braff, 1987) and NVHL rats (Lipska et al., 1995). PPI was tested in adult sham (n=11), NAC-treated sham (n=12), NVHL (n=9), and NAC-treated NVHL rats (n=17). In addition to loss of PVI maturation and electrophysiological anomalies, developmental oxidative stress in juvenile NVHL rats can cause schizophrenia-relevant adult behavioral deficits.
The beneficial effect of NAC treatment includes a large postnatal treatment that starts prior to the lesion and stops once rats become young adults. For full translational value one determines whether NAC is efficacious when started at an age that corresponds to the time when prodromal stages can be identified in humans. In another set of rats, NAC was administered in the drinking water starting at P35, an age that in rats is equivalent to early adolescence. For PPI deficits was tested in adult SHAM (n=15), untreated NVHL (n=12), and NAC-treated NVHL rats (n=14).
Ebselen is a glutathione peroxidase (GPx) mimic (Muller et al., 1984) that induces GPx expression (Kil et al., 2007) and enhances GSH levels in neurons, replenishing GSH depleted by neurotoxic mechanisms (Pawlas and Malecki, 2007). PPI was tested in adult vehicle-treated SHAM (n=10), Ebselen-treated SHAM (n=7), vehicle-treated NVHL (n=8), and Ebselen-treated NVHL rats (n=9), and Ebselen treatment during adolescence reversed PPI deficits in NVHL rats (as shown in FIG. 15D).
In another group of rats, the effects of the NADPH oxidase inhibitor Apocynin was assessed while delivering through juvenile and adolescent stages. PPI was tested in adult vehicle-treated SHAM (n=10), apocynin-treated SHAM (n=11), vehicle treated NHVL (n=7), and apocynin-treated NVHL (n=5). As illustrated in FIG. 15C a reversal of PPI deficits was observed.
Antioxidant pretreatment regimen: NAC (BioAdvantexPharma, Mississauga, Ontario, Canada) was administered in the drinking water at 900 mg/l. NAC treatment started at P5 or at P35, and previous work in mice has shown that NAC consumed by the dam is transmitted to the pups through her milk (das Neves Duarte et al., 2012). NAC treatment ended at P50. Fresh solutions were prepared every 2-3 days. Ebselen (Sound Pharmaceuticals Inc., Seattle, WA) was administered i.p. 5 days a week starting at P35 until the day of PPI testing (P60). Stock ebselen solution (20 mg/ml DMSO, frozen aliquots) was diluted 1:5 in sterile water and administered at a dose of 10 mg/kg. Control animals received an equivalent concentration of DMSO diluted 1:5 in water. Apocynin (Sigma-Aldrich, St. Louis, MO) was administered in the drinking water at a target dose of 100 mg/kg (Nwokocha et al., 2013). Prior to weaning at P21, drinking water contained a dose of 2 g apocynin per 0.5 1 of water, to ensure delivery through the dam's milk. Apocynin concentration was lowered after weaning to 750 mg/1 to best approximate the target dose. Treatment lasted from P5 to P50 with fresh solutions prepared every other day.
Prepulse inhibition: Starting at P60, both male and female rats were tested for PPI, as described previously (Feleder et al., 2010). As PPI deficits in NVHL rats are most evident when rats are challenged with apomorphine (Lipska et al., 1995), we injected apomorphine (0.1 mg/kg, i.p.) immediately prior to the PPI test session. Rats were placed in a sound- attenuated startle chamber (San Diego Instruments, San Diego, CA) with a 70 dB background white noise. After a 5 min adaptation period, the PPI test was initiated with pseudorandom trials every 15 to 25 seconds. Either pulse (120 dB), prepulse (75 dB, 80 dB, or 85 dB), no pulse or prepulse +pulse were delivered. […]

[1] = test system: perineuronal nets (PNN) in the PFC of NVHL rats; assay: WFA staining of perineuronal nets (PNN) around PVI in PFC of NVHL rats; assay type: in vivo, Sprague-Dawley rats; details: adult NVHL rats, juvenile treatment
Text: To determine the types of interneurons expressing oxidative stress in NVHL rats, 8-oxo-dG with PV, calbindin (CB) and calretinin (CR) was co-labeled. […] About 50% of PVI were co-labeled with 8-oxo-dG, indicating oxidative stress is pervasive in this cell population. A marker of PVI maturation is Wisteria Floribunda agglutinin (WFA), a lectin that recognizes the perineuronal nets (PNN) enwrapping mature cortical PVI. […] PVI may be highly exposed to increased oxidative stress because they make up the majority of fast-spiking interneurons and their high energy metabolism may generate more reactive oxygen species than non-fast spiking neurons.
Antioxidant pretreatment regimen: NAC (BioAdvantexPharma, Mississauga, Ontario, Canada) was administered in the drinking water at 900 mg/l. NAC treatment started at P5 or at P35, and previous work in mice has shown that NAC consumed by the dam is transmitted to the pups through her milk (das Neves Duarte et al., 2012). NAC treatment ended at P50. Fresh solutions were prepared every 2-3 days. Ebselen (Sound Pharmaceuticals Inc., Seattle, WA) was administered i.p. 5 days a week starting at P35 until the day of PPI testing (P60). Stock ebselen solution (20 mg/ml DMSO, frozen aliquots) was diluted 1:5 in sterile water and administered at a dose of 10 mg/kg. Control animals received an equivalent concentration of DMSO diluted 1:5 in water. […]

In the case of `CC(=O)N[C@@H](CS)C(=O)O` [NAC, N-acetyl cysteine], the “effect on PPI deficit” value (NVHL rats; apomorphine 0.1 mg/kg i.p. challenge, juvenile treatment P5 to P50, drinking water) is reported as “prevented; also recorded: completely reversed”, the “effect on PPI deficit” value (NVHL rats; adolescent treatment P35 to P50, drinking water, tested P61) is reported as “prevented” and the “effect on reduced WFA staining / WFA-positive PVI (PNN)” value [1] is reported as “restored; also recorded: prevented”.
